Patent US20250345317A1, “New pharmaceutical compounds, methods and uses thereof” (BBIT-THERAPEUTICS, LDA., priority 2020, published 2025)

Columns and labels:
Type in all cases: cell-based, human
[1] = tested on: HFF-1; experiment: Growth inhibition, SRB assay, normal HFF-1 cells; conditions: HFF1 normal cells, 48 hours (second Table 2)
Source text: (§1) Table 2 refers to the growth inhibitory effect of COMP, olaparib and cisplatin (CDDP) in a panel of human immortalized breast (T47D, MCF-7, MDA-MB-231, MDA-MB-468, SK-BR-3 and HCC1937), ovarian and endocervical (OCVAR, SKOV-3, […],IGROV-1 and HeLa), pancreatic (PANC-1 and MIAPACA), neuroblastoma (SHSY-5Y), lung (NCI-H460), prostate (VCaP) melanoma (A375 and SK-MEL-5) and glioblastoma (SF-208) cancer cells, immortalized normal MCF10a and HFF1 human cells, and patient-derived ovarian (PD-OVCA #1, #9, #41, #49 and #62) cancer cells. […] Data are mean±SEM (n=5).
(§2) In an embodiment, IC50 values were determined by Sulforhodamine B (SRB) or MTS [3-(4,5-dimethylthiazol-2-yl)-5-(3-carboxymethoxyphenyl)-2-(4-sulfophenyl)-2H-tetrazolium] assay in immortalized and PD-OVCA cells, respectively. Cancer cells were plated in 96-well plates and incubated for 24 hours. Cells were then exposed to serial dilutions of compounds for 48 hours. The solvent DMSO corresponding to the maximum concentration used in these assays (0.025%) was included as control. Results are the mean±S.E.M. of 3-5 independent experiments.

[2] = tested on: MDA-MB-231; experiment: Growth inhibition, SRB assay, MDA-MB-231; conditions: MDA-MB-231, BRCA1 loss of heterozygosity, 48 hours (second Table 2)
Source text: as §1, §2

[3] = tested on: IGROV-1 (mutBRCA1 280delA; mutBRCA2 3320del1); experiment: Growth inhibition, SRB assay, IGROV-1; conditions: Igrov-1, BRCA1 mutant, 48 hours (second Table 2)
Source text: as §1, §2

[4] = tested on: HCC1937 (5382insC); experiment: Growth inhibition, SRB assay, HCC1937; conditions: HCC1937, BRCA1 mutant, 48 hours (second Table 2)
Source text: as §1, §2

[5] = tested on: SK-BR-3; experiment: Growth inhibition, SRB assay, SK-BR-3; conditions: SK-BR-3, BRCA1 loss of heterozygosity, 48 hours (second Table 2)
Source text: as §1, §2

[6] = tested on: MDA-MB-468; experiment: Growth inhibition, SRB assay, MDA-MB-468; conditions: MDA-MB-468, BRCA1 loss of heterozygosity, 48 hours (second Table 2)
Source text: as §1, §2

[7] = tested on: MCF-7; experiment: Growth inhibition, SRB assay, MCF-7; conditions: MCF-7, BRCA1 wild-type, 48 hours (second Table 2)
Source text: as §1, §2

[8] = tested on: SKOV-3; experiment: Growth inhibition, SRB assay, SKOV-3; conditions: Skov-3, BRCA1 wild-type, 48 hours (second Table 2)
Source text: as §1, §2

[9] = tested on: T47D; experiment: Growth inhibition, SRB assay, T47D; conditions: BRCA1 wild-type, 48 hours (second Table 2)
Source text: as §1, §2

[10] = tested on: OVCAR-3; experiment: Growth inhibition, SRB assay, OVCAR-3; conditions: OVCAR-3, BRCA1 wild-type, 48 hours (second Table 2)
Source text: as §1, §2

SMILES | IC50 ([1]; Homo sapiens, HFF-1, 48 h) [µM] | IC50 ([2]; Homo sapiens, MDA-MB-231, 48 h) [µM] | IC50 ([3]; Homo sapiens, IGROV-1, 48 h) [µM] | IC50 ([4]; Homo sapiens, HCC1937, 48 h) [µM] | IC50 ([5]; Homo sapiens, SK-BR-3, 48 h) [µM] | IC50 ([6]; Homo sapiens, MDA-MB-468, 48 h) [µM] | IC50 ([7]; Homo sapiens, MCF7, 48 h) [µM] | IC50 ([8]; Homo sapiens, SK-OV-3, 48 h) [µM] | IC50 ([9]; Homo sapiens, 48 h) [µM] | IC50 ([10]; Homo sapiens, OVCAR-3, 48 h) [µM] | IC50 [1] [µM] | IC50 [2] [µM] | IC50 [3] [µM] | IC50 [4] [µM] | IC50 [5] [µM] | IC50 [6] [µM] | IC50 [7] [µM] | IC50 [8] [µM] | IC50 [9] [µM] | IC50 [10] [µM]
CC[C@@H]1CN(C)C2Cc3c([nH]c4ccccc34)[C@@H](OC(=O)C34CC5CC(CC(C5)C3)C4)C[C@H]1[C@@H]2C(=O)OC [BE1] | > 50 | > 50 | > 50 | > 50 | > 50 | > 50 | > 50 | > 50 | > 50 | > 50 | – | – | – | – | – | – | – | – | – | –
CCC1CN(C)[C@H]2Cc3c([nH]c4ccccc34)C(O)C[C@H]1C2C(=O)OC (stereo partly drawn) [DOH] | > 50 | > 50 | > 50 | > 50 | > 50 | > 50 | > 50 | > 50 | > 50 | > 50 | – | – | – | – | – | – | – | – | – | –
CCC1CN(C)[C@H]2Cc3c([nH]c4ccccc34)/C(=N/NC(=O)OCc3ccc(OC)cc3)C[C@H]1C2C(=O)OC (stereo partly drawn) [DS2] | 45.5 | 31 | 28.5 | 27 | 29.5 | 33 | 39.3 | 47.5 | 25.5 | 43.3 | – | – | – | – | – | – | – | – | – | –
CCC1CN(C)[C@H]2Cc3c([nH]c4ccccc34)/C(=N/Nc3ccc(Br)cn3)C[C@H]1[C@@H]2C(=O)OC (stereo partly drawn) [TH4] | 16.5 | 13.7 | 14 | 22.5 | 16 | 16 | 12.5 | 14.5 | 23.5 | 22 | – | – | – | – | – | – | – | – | – | –
CCC1CN(C)[C@H]2Cc3c([nH]c4ccccc34)/C(=N/Nc3ccccc3)C[C@H]1[C@@H]2C(=O)OC (stereo partly drawn) [TH2] | – | – | – | – | – | – | – | – | – | – | 19.3 | 19 | 9.7 | 25.5 | 14.5 | 11.5 | 25.6 | 23.5 | 22.5 | 13.5
C/C=C/C(=O)O[C@@H]1C[C@@H]2[C@@H](CC)CN(C)C(Cc3c1[nH]c1ccccc31)[C@H]2C(=O)OC [DE1] | > 50 | > 50 | > 50 | > 50 | > 50 | > 50 | > 50 | > 50 | > 50 | > 50 | – | – | – | – | – | – | – | – | – | –
CCC1CN(C)[C@H]2Cc3c([nH]c4ccccc34)/C(=N/Nc3ccccc3)C[C@H]1[C@@H]2C(=O)OC (stereo partly drawn) [DH2] | 20.5 | 23.2 | 12.7 | 19.5 | 18 | – | > 50 | 18.8 | 23 | – | – | – | – | – | – | 31.5 | – | – | – | > 50
CCC1CN(C)[C@H]2Cc3c([nH]c4ccccc34)C(=S)C[C@H]1C2C(=O)OC (stereo partly drawn) [DTHIO] | > 50 | > 50 | > 50 | > 50 | > 50 | > 50 | > 50 | > 50 | > 50 | > 50 | – | – | – | – | – | – | – | – | – | –
CCC1CN(C)[C@H]2Cc3c([nH]c4ccccc34)C(=O)C[C@H]1[C@@H]2C(=O)OC (stereo partly drawn) [D] | > 50 | > 50 | > 50 | > 50 | > 50 | > 50 | > 50 | > 50 | > 50 | > 50 | – | – | – | – | – | – | – | – | – | –
CCC1CN(C)[C@H]2Cc3c([nH]c4ccccc34)/C(=N/N)C[C@H]1[C@@H]2C(=O)OC (stereo partly drawn) [DH1] | > 50 | > 50 | 26 | 32.1 | > 50 | > 50 | > 50 | > 50 | > 50 | > 50 | – | – | – | – | – | – | – | – | – | –
CC[C@H]1CN(C)C2Cc3c([nH]c4ccccc34)/C(=N/NC(=S)NCc3ccccn3)C[C@H]1[C@@H]2C(=O)OC [DS3] | 18.6 | 8.7 | 17.5 | 19.5 | 20.5 | 15.5 | 14.4 | 28.7 | 27.5 | 22.2 | – | – | – | – | – | – | – | – | – | –
CCC1CN(C)[C@H]2Cc3c([nH]c4ccccc34)/C(=N/Nc3cnccn3)C[C@H]1[C@@H]2C(=O)OC (stereo partly drawn) [DH3] | 26.5 | 49 | 24.5 | > 50 | > 50 | 40 | > 50 | 27.5 | > 50 | > 50 | – | – | – | – | – | – | – | – | – | –
